In brackets after ≈: the same amount, converted by molar mass. Like-named read-outs stand apart in the source and are kept apart here.
System: Pneumocystis murina
Assay: In vitro ATP content of Pneumocystis (luciferin-luciferase assay)
Conditions: for IC50: Pneumocystis murina, read-out: IC50 (reduction in ATP)

## NCC(=O)Nc1ccc(-n2nc(C(F)(F)F)cc2-c2ccc3c(ccc4ccccc43)c2)cc1 [AR-12, 2-amino-N-(4-(5-(phenanthren-2-yl)-3-(trifluoromethyl)-1H-pyrazol-1-yl)phenyl)acetamide]
24 h
  IC50: 9.69 µg/mL (≈ 21 µM)
48 h
  IC50: 2.77 µg/mL (≈ 6.02 µM)
72 h
  IC50: 1.78 µg/mL (≈ 3.87 µM)
Table 3, 1 μg/ml, 24 hours
  Pm % Reduction in ATP/Vehicle Control: 3.51%
Table 3, 1 μg/ml, 48 hours
  Pm % Reduction in ATP/Vehicle Control: 5.76%
Table 3, 1 μg/ml, 72 hours
  Pm % Reduction in ATP/Vehicle Control: 15.48%
Table 3, 10 μg/ml, 24 hours
  Pm % Reduction in ATP/Vehicle Control: 54.02%
Table 3, 10 μg/ml, 48 hours
  Pm % Reduction in ATP/Vehicle Control: 85.38%
Table 3, 10 μg/ml, 72 hours
  Pm % Reduction in ATP/Vehicle Control: 94.23%
Table 3, 100 μg/ml, 24 hours
  Pm % Reduction in ATP/Vehicle Control: 83.6%
Table 3, 100 μg/ml, 48 hours
  Pm % Reduction in ATP/Vehicle Control: 97.76%
Table 3, 100 μg/ml, 72 hours
  Pm % Reduction in ATP/Vehicle Control: 98.09%

Reference: patent US20160199351A1, “COMPOSITIONS AND METHODS FOR INHIBITING FUNGAL INFECTIONS” (priority 2015, published 2016)
